According to PubChem BioAssay (NCI):
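Step 1: Grow cells in 96-well plates. Step 2: Expose to compound for 48 hours at 5 concentrations. Step 3: Interpolate endpoints linearly; if unreached, use highest concentration. GI50: concentration for 50% inhibition of growth. Definition used: TGI = concentration required for complete inhibition of growth.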

How the values were obtained:
Assay in all cases: NCI-60 cell line screen, 48 h
LOX IMVI melanoma = tested on: LOX IMVI melanoma
HOP-62 NSCLC = tested on: HOP-62 NSCLC
RXF 393 renal = tested on: RXF 393 renal
HCT-116 colon = tested on: HCT-116 colon
TK-10 renal = tested on: TK-10 renal
HCC-2998 colon = tested on: HCC-2998 colon
OVCAR-3 ovarian = tested on: OVCAR-3 ovarian
MDA-MB-231 breast = tested on: MDA-MB-231 breast
NCI-H23 lung = tested on: NCI-H23 lung
UACC-62 melanoma = tested on: UACC-62 melanoma

Molecule `CC(C)c1ccc(C(=O)Nc2sc3c(c2C#N)CCC(=O)C3)cc1` has a GI50 (LOX IMVI melanoma) of 0.39 µM, a TGI (LOX IMVI melanoma) greater than 33.4 µM and a GI50 (HOP-62 NSCLC) of 3.02 µM. It also gave a TGI (HOP-62 NSCLC) greater than 87.6 µM, a GI50 (RXF 393 renal) of 0.271 µM and a TGI (RXF 393 renal) of 1.14 µM. For the same molecule, the GI50 (HCT-116 colon) was 0.18 µM, the TGI (HCT-116 colon) was greater than 24.3 µM and the GI50 (TK-10 renal) was 0.613 µM. It also gave a TGI (TK-10 renal) of 5.47 µM, a GI50 (HCC-2998 colon) of 1.94 µM and a TGI (HCC-2998 colon) greater than 37.4 µM. It also gave a GI50 (OVCAR-3 ovarian) of 0.396 µM, a TGI (OVCAR-3 ovarian) of 1.61 µM and a GI50 (MDA-MB-231 breast) of 0.594 µM. The TGI (MDA-MB-231 breast) was 2.88 µM, the GI50 (NCI-H23 lung) was 0.32 µM and the TGI (NCI-H23 lung) was 9.57 µM. It also gave a GI50 (UACC-62 melanoma) of 0.318 µM and a TGI (UACC-62 melanoma) of 1.6 µM.
Work on `COCCOC(=O)NC(=O)Nc1ccc(/C(=N/O)c2ccc(Cl)cc2)cc1` yielded a GI50 (LOX IMVI melanoma) of 0.144 µM, a TGI (LOX IMVI melanoma) of 23.7 µM and a GI50 (HOP-62 NSCLC) of 0.127 µM. For the same molecule, the TGI (HOP-62 NSCLC) was 41.2 µM, the GI50 (RXF 393 renal) was 0.0866 µM and the TGI (RXF 393 renal) was 3.2 µM. The GI50 (HCT-116 colon) was 0.112 µM, the TGI (HCT-116 colon) was 23.6 µM and the GI50 (TK-10 renal) was 16.5 µM. The TGI (TK-10 renal) was greater than 82.6 µM, the GI50 (HCC-2998 colon) was 0.2 µM and the TGI (HCC-2998 colon) was 7.04 µM. It also gave a GI50 (OVCAR-3 ovarian) of 0.0991 µM, a TGI (OVCAR-3 ovarian) of 4.4 µM and a GI50 (MDA-MB-231 breast) of 0.166 µM. It also gave a TGI (MDA-MB-231 breast) of 11 µM, a GI50 (NCI-H23 lung) of 0.221 µM and a TGI (NCI-H23 lung) of 51.4 µM. It also gave a GI50 (UACC-62 melanoma) of 0.109 µM and a TGI (UACC-62 melanoma) of 15.8 µM.
`O=C(Nc1ccc(F)cc1)c1c(NC(=O)C(F)(F)F)sc2c1CCCCC2` gave a GI50 (LOX IMVI melanoma) of 2.43 µM, a TGI (LOX IMVI melanoma) of 13.2 µM and a GI50 (HOP-62 NSCLC) of 2.26 µM. The TGI (HOP-62 NSCLC) was 6.48 µM, the GI50 (RXF 393 renal) was 1.75 µM and the TGI (RXF 393 renal) was 6.56 µM. The GI50 (HCT-116 colon) was 2.05 µM, the TGI (HCT-116 colon) was 10.3 µM and the GI50 (TK-10 renal) was 3.96 µM. The TGI (TK-10 renal) was 12.5 µM, the GI50 (HCC-2998 colon) was 2.06 µM and the TGI (HCC-2998 colon) was 10 µM. It also gave a GI50 (OVCAR-3 ovarian) of 2.04 µM, a TGI (OVCAR-3 ovarian) of 16.3 µM and a GI50 (MDA-MB-231 breast) of 1.75 µM. The TGI (MDA-MB-231 breast) was 7.3 µM, the GI50 (NCI-H23 lung) was 2 µM and the TGI (NCI-H23 lung) was 8.82 µM. It also gave a GI50 (UACC-62 melanoma) of 0.585 µM and a TGI (UACC-62 melanoma) of 5.19 µM.
Molecule `NC1CCN(c2nc(Nc3cccc(C(F)(F)F)c3)c3c(=O)[nH]ccc3n2)CC1` has a GI50 (LOX IMVI melanoma) of 1.33 µM, a TGI (LOX IMVI melanoma) of 2.72 µM and a GI50 (HOP-62 NSCLC) of 1.76 µM. For the same molecule, the TGI (HOP-62 NSCLC) was 3.54 µM, the GI50 (RXF 393 renal) was 1.31 µM and the TGI (RXF 393 renal) was 2.67 µM. For the same molecule, the GI50 (HCT-116 colon) was 1.09 µM, the TGI (HCT-116 colon) was 2.3 µM and the GI50 (TK-10 renal) was 1.3 µM. The TGI (TK-10 renal) was 2.72 µM, the GI50 (HCC-2998 colon) was 1.6 µM and the TGI (HCC-2998 colon) was 3 µM. For the same molecule, the GI50 (MDA-MB-231 breast) was 2 µM, the TGI (MDA-MB-231 breast) was 3.6 µM and the GI50 (NCI-H23 lung) was 1.58 µM. For the same molecule, the TGI (NCI-H23 lung) was 3.11 µM, the GI50 (UACC-62 melanoma) was 1.83 µM and the TGI (UACC-62 melanoma) was 3.51 µM.
`Clc1ccc2[nH]cc(-c3nc(-c4c[nH]c5ncccc45)cs3)c2c1` showed a GI50 (LOX IMVI melanoma) of 2.71 µM, a TGI (LOX IMVI melanoma) of 12.1 µM and a GI50 (HOP-62 NSCLC) of 5.2 µM. For the same molecule, the TGI (HOP-62 NSCLC) was 27.3 µM, the GI50 (RXF 393 renal) was 2.69 µM and the TGI (RXF 393 renal) was 11.4 µM. For the same molecule, the GI50 (HCT-116 colon) was 3.23 µM, the TGI (HCT-116 colon) was 13.7 µM and the GI50 (TK-10 renal) was 4.71 µM. The TGI (TK-10 renal) was 38.1 µM, the GI50 (HCC-2998 colon) was 4.63 µM and the TGI (HCC-2998 colon) was 21.8 µM. It also gave a GI50 (OVCAR-3 ovarian) of 6.69 µM, a TGI (OVCAR-3 ovarian) of 34.1 µM and a GI50 (MDA-MB-231 breast) of 2.2 µM. It also gave a TGI (MDA-MB-231 breast) of 17.1 µM, a GI50 (NCI-H23 lung) of 3.34 µM and a TGI (NCI-H23 lung) of 20.5 µM. The GI50 (UACC-62 melanoma) was 4 µM and the TGI (UACC-62 melanoma) was 16.5 µM.
In the case of `CCOC(=O)c1[nH]c(-c2ccc(Cl)cc2)cc1-c1cccnc1`, the GI50 (LOX IMVI melanoma) is reported as 0.659 µM, the TGI (LOX IMVI melanoma) is reported as greater than 100 µM and the GI50 (HOP-62 NSCLC) is reported as 0.868 µM. The TGI (HOP-62 NSCLC) was greater than 100 µM, the GI50 (RXF 393 renal) was 1.27 µM and the TGI (RXF 393 renal) was 7.23 µM. For the same molecule, the GI50 (HCT-116 colon) was 0.387 µM, the TGI (HCT-116 colon) was greater than 100 µM and the GI50 (TK-10 renal) was 0.972 µM. The TGI (TK-10 renal) was greater than 100 µM, the GI50 (HCC-2998 colon) was 9.46 µM and the TGI (HCC-2998 colon) was greater than 100 µM. For the same molecule, the GI50 (OVCAR-3 ovarian) was 0.349 µM, the TGI (OVCAR-3 ovarian) was greater than 100 µM and the GI50 (MDA-MB-231 breast) was 1.67 µM. It also gave a TGI (MDA-MB-231 breast) greater than 100 µM, a GI50 (NCI-H23 lung) of 2.33 µM and a TGI (NCI-H23 lung) greater than 100 µM. For the same molecule, the GI50 (UACC-62 melanoma) was 0.843 µM and the TGI (UACC-62 melanoma) was greater than 100 µM.
